Laboratory results taken from patent US20220396569A1 (Carmot Therapeutics, Inc., priority 2021, published 2022).

These compounds were tested against T1, human GLP-1 receptor (Homo sapiens, UniProt P43220) (assay: GLP-1R cAMP Assay (HitHunter cAMP accumulation)). Settings: cAMP accumulation, CHO cells stably overexpressing human GLP-1 receptor, 30 min treatment; read-out: EC50.
T1 construct: expressed in transfected cells
Format: cell-based
Description: cAMP accumulation was measured in Chinese hamster ovary (CHO) cells stably overexpressing the human GLP-1 receptor using the HitHunter cAMP Assay for Small Molecules Kit (Eurofins). Briefly, cells were grown in Ham's F12 Nutrient Mix with 10% FBS, and lifted with Cell Dissociation Buffer, Enzyme free, PBS based (ThermoFisher). Cells were pelleted, and resuspended in Hank's buffered saline solution with 10 mM HEPES, and 625 μM 3-isobutyl-1-methylxanthine. The anti-cAMP antibody reagent was then added to cells at a 1:2 ratio and 5 μL of mixture was seeded in 384-well small volume white assay plates, at 10,000 cells/well. Cells were then treated with 50 nL compound using an ECHO 550 acoustic dispenser (Labcyte) in a 20-point dose response format in triplicate for 30 min. Cells were then lysed, and detection reagents added according to the manufacturer's protocol. After overnight incubation, luminescence was measured using a Perkin Elmer Envision plate reader. Dose response curves were analyzed using GraphPad Prism 9.0. […]

T1 sequence (P43220 24-463): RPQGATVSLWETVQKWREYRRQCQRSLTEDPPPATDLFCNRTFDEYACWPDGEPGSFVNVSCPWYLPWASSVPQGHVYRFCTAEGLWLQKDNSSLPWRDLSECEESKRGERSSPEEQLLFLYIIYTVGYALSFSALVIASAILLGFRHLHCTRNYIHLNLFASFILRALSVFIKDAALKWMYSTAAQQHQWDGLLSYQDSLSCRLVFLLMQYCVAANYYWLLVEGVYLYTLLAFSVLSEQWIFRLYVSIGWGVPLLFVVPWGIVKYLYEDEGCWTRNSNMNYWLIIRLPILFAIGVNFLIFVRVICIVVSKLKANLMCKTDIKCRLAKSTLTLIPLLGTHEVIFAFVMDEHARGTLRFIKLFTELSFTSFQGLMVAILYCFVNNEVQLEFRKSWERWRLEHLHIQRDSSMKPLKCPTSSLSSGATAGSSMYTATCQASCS

For `O=C(O)c1ccc2nc(CN3CC[C@@H](c4ccc(F)c(COc5ccc(Cl)cc5F)c4)C3)n(C[C@@H]3CCO3)c2c1` [Compound 446, 2-{[(3S)-3-{3-[(4-chloro-2-fluorophenoxy)methyl]-4-fluorophenyl}pyrrolidin-1-yl]methyl}-1-{[(2S)-oxetan-2-yl]methyl}-1H-1,3-benzodiazole-6-carboxylic acid], which EC50 is on record?
The EC50 was under 50 nM.

Which EC50 does the source give for `N#Cc1ccc(OCc2nccc(Oc3cc(F)c(Cc4nc5c(F)cc(C(=O)O)cc5n4C[C@@H]4CCO4)cc3F)n2)c(F)c1` [Compound 470, 2-{[4-({2-[(4-cyano-2-fluorophenoxy)methyl]pyrimidin-4-yl}oxy)-2,5-difluorophenyl]methyl}-4-fluoro-1-{[(2S)-oxetan-2-yl]methyl}-1H-1,3-bcnzodiazole-6-carboxylic acid] here?
Its EC50 is under 50 nM.

Which EC50 does the source give for `C[C@H]1[C@@H](Oc2ccnc(COc3ccc(F)cc3F)n2)CN1Cc1nc2ccc(C(=O)O)cc2n1C[C@@H]1CCO1` [Compound 548] here?
The EC50 was under 50 nM.

With `O=C(O)c1ccc2nc(CN3CC=C(c4cccc(COc5ccc(Cl)cc5F)c4F)C3)n(C[C@@H]3CCO3)c2c1` [Compound 426, 2-[(3-{3-[(4-chloro-2-fluorophenoxy)methyl]-2-fluorophenyl}-2,5-dihydro-1H-pyrrol-1-yl)methyl]-1-{[(2S)-oxetan-2-yl]methyl}-1H-1,3-benzodiazole-6-carboxylic acid] as the compound, how does the EC50 read?
The EC50 was 50 to 500 nM.

With `O=C(O)c1cc(F)c2nc(CN3CC=C(c4nc(COc5ccc(Cl)cc5Cl)ccc4F)C3)n(C[C@@H]3CCO3)c2c1` [Compound 451, 2-[(3-{6-[(2,4-dichlorophenoxy)methyl]-3-fluoropyridin-2-yl}-2,5-dihydro-1H-pyrrol-1-yl)methyl]-4-fluoro-1-{[(2S)-oxetan-2-yl]methyl}-1H-1,3-benzodiazole-6-carboxylic acid] as the compound, how does the EC50 read?
Its EC50 is under 50 nM.

`CC1(c2ccc(Cl)cn2)Oc2cccc(CC3CCN(Cc4nc5ccc(C(=O)O)cc5n4C[C@@H]4CCO4)CC3)c2O1` (stereo partly drawn) [Example 173, 2-((4-((2-(5-Chloropyridin-2-yl)-2-methylbenzo[d][1,3]dioxol-4-yl)methyl)piperidin-1-yl)methyl)-1-(((S)-oxetan-2-yl)methyl)-1H-benzo[d]imidazole-6-carboxylic acid] was tested. Which EC50 did it give?
Its EC50 is 50 to 500 nM.

For `CCn1cncc1Cn1c(CN2CC(Cc3cnc(COc4ccc(Cl)cc4C#N)o3)C2)nc2ccc(C(=O)O)cc21` [Compound 167, 2-{[3-({2-[(4-chloro-2-cyanophenoxy)methyl]-1,3-oxazol-5-yl}methyl)azetidin-1-yl]methyl}-1-[(1-ethyl-1H-imidazol-5-yl)methyl]-1H-1,3-benzodiazole-6-carboxylic acid], which EC50 is on record?
The EC50 was under 50 nM.

`CCn1cncc1Cn1c(CN2CC(Cc3cccc(COc4ccc(Cl)cc4Cl)c3)C2)nc2ccc(C(=O)O)cc21` [Example 197, 2-((3-(3-((2,4-Dichlorophenoxy)methyl)benzyl)azetidin-1-yl)methyl)-1-((1-ethyl-1H-imidazol-5-yl)methyl)-1H-benzo[d]imidazole-6-carboxylic acid] was tested. Which EC50 did it give?
The EC50 was under 50 nM.

For `CCn1cncc1Cn1c(CN2CCC(Cc3cccc4c3O[C@@](C)(c3ccc(Cl)cc3F)O4)CC2)nc2ccc(C(=O)O)cc21` (single isomer, unassigned) [Compound 223], which EC50 is on record?
Its EC50 is under 50 nM.

`O=C(O)c1ccc2nc(CN3CC(Oc4cccc(COc5ccc(Cl)cc5Cl)c4)C3)n(C[C@@H]3CCO3)c2c1` [Example 192, (S)-2-((3-(3-((2,4-Dichlorophenoxy)methyl)phenoxy)azetidin-1-yl)methyl)-1-(oxetan-2-ylmethyl)-1H-benzo[d]imidazole-6-carboxylic acid] was tested. Which EC50 did it give?
The EC50 was under 50 nM.

`O=C(O)c1cc(F)c2nc(CN3CC=C(c4cc(COc5ccc(Cl)cc5F)ncc4F)C3)n(C[C@@H]3CCO3)c2c1` [Compound 452] was tested. Which EC50 did it give?
Its EC50 is under 50 nM.

With `O=C(O)c1ccc2nc(CN3CCC(c4cc(F)cc(COc5ccc(Cl)cc5F)c4)C3)n(C[C@@H]3CCO3)c2c1` (stereo partly drawn) [Compound 420, 2-[(3-{3-[(4-chloro-2-fluorophenoxy)methyl]-5-fluorophenyl}pyrrolidin-1-yl)methyl]-1-{[(2S)-oxetan-2-yl]methyl}-1H-1,3-benzodiazole-6-carboxylic acid] as the compound, how does the EC50 read?
Its EC50 is under 50 nM.

With `CCn1cncc1Cn1c(CN2CC(Cc3ccnc(COc4ccc(Cl)cc4Cl)c3)C2)nc2ccc(C(=O)O)cc21` [Compound 176, 2-{[3-({2-[(2,4-dichlorophenoxy)methyl]pyridin-4-yl}methyl)azetidin-1-yl]methyl}-1-[(1-ethyl-1H-imidazol-5-yl)methyl]-1H-1,3-benzodiazole-6-carboxylic acid] as the compound, how does the EC50 read?
The EC50 was under 50 nM.

With `O=C(O)c1ccc2nc(CN3CCC(c4cc(COc5ccc(Cl)cc5F)ccc4F)C3)n(C[C@@H]3CCO3)c2c1` (stereo partly drawn) [Compound 419, 2-[(3-{5-[(4-chloro-2-fluorophenoxy)methyl]-2-fluorophenyl}pyrrolidin-1-yl)methyl]-1-{[(2S)-oxetan-2-yl]methyl}-1H-1,3-benzodiazole-6-carboxylic acid] as the compound, how does the EC50 read?
Its EC50 is under 50 nM.

With `O=C(O)c1ccc2nc(CN3CC(Cc4ccnc(COc5ccc(Cl)cc5Cl)c4)C3)n(Cc3ncco3)c2c1` [Compound 181, 2-{[3-({2-[(2,4-dichlorophenoxy)methyl]pyridin-4-yl}methyl)azetidin-1-yl]methyl}-1-[(1,3-oxazol-2-yl)methyl]-1H-1,3-benzodiazole-6-carboxylic acid] as the compound, how does the EC50 read?
Its EC50 is under 50 nM.

How did the EC50 turn out when `O=C(O)c1cc(F)c2nc(CN3CCC(c4nc(COc5ccc(Cl)cc5F)ccc4F)C3)n(C[C@@H]3CCO3)c2c1` (stereo partly drawn) [Compound 457, 2-[(3-{6-[(4-chloro-2-fluorophenoxy)methyl]-3-fluoropyridin-2-yl}pyrrolidin-1-yl)methyl]-4-fluoro-1-{[(2S)-oxetan-2-yl]methyl}-1H-1,3-benzodiazole-6-carboxylic acid] was run?
The EC50 was under 50 nM.

For `O=C(O)c1ccc2nc(CN3CC[C@@H](c4ccc(F)c(COc5ccc(Cl)cc5F)n4)C3)n(C[C@@H]3CCO3)c2c1` (single isomer, unassigned) [Compound 516], which EC50 is on record?
The EC50 was under 50 nM.

Which EC50 does the source give for `C[C@H]1[C@@H](Oc2ccnc(COc3ccc(C#N)cc3F)n2)CN1Cc1nc2c(F)cc(C(=O)O)cc2n1C[C@@H]1CCO1` [Compound 546, 2-{[(2S,3S)-3-({2-[(4-cyano-2-fluorophenoxy)methyl]pyrimidin-4-yl}oxy)-2-methylazetidin-1-yl]methyl}-4-fluoro-1-{[(2S)-oxetan-2-yl]methyl}-1H-1,3-benzodiazole-6-carboxylic acid] here?
Its EC50 is under 50 nM.

With `O=C(O)c1ccc2nc(CN3CC=C(c4ccnc(COc5ccc(Cl)cc5F)c4)C3)n(Cc3ncco3)c2c1` [Compound 404, 2-[(3-{2-[(4-chloro-2-fluorophenoxy)methyl]pyridin-4-yl}-2,5-dihydro-1H-pyrrol-1-yl)methyl]-1-[(1,3-oxazol-2-yl)methyl]-1H-1,3-benzodiazole-6-carboxylic acid] as the compound, how does the EC50 read?
The EC50 was under 50 nM.

How did the EC50 turn out when `O=C(O)c1ccc2nc(CN3CC=C(c4ccnc(COc5ccc(Cl)cc5F)c4)C3)n(C[C@@H]3CCO3)c2c1` [Compound 403, 2-[(3-{2-[(4-chloro-2-fluorophenoxy)methyl]pyridin-4-yl}-2,5-dihydro-1H-pyrrol-1-yl)methyl]-1-{[(2S)-oxetan-2-yl]methyl}-1H-1,3-benzodiazole-6-carboxylic acid] was run?
Its EC50 is under 50 nM.

Which EC50 does the source give for `N#CCC1(Cn2c(CN3CC[C@@H](c4ccnc(COc5ccc(Cl)cc5F)c4)C3)nc3ccc(C(=O)O)cc32)CC1` [Compound 431, 2-{[(3S)-3-{2-[(4-chloro-2-fluorophenoxy)methyl]pyridin-4-yl}pyrrolidin-1-yl]methyl}-1-{[1-(cyanomethyl)cyclopropyl]methyl}-1H-1,3-benzodiazole-6-carboxylic acid] here?
The EC50 was under 50 nM.

With `N#Cc1ccc(OCc2nc([C@@]34C[C@@H]3CN(Cc3nc5c(F)cc(C(=O)O)cc5n3C[C@@H]3CCO3)C4)ccc2F)c(F)c1` [Compound 531, 2-{[(1S,5S)-1-{6-[(4-cyano-2-fluorophenoxy)methyl]-5-fluoropyridin-2-yl}-3-azabicyclo[3.1.0]hexan-3-yl]methyl}-4-fluoro-1-{[(2S)-oxetan-2-yl]methyl}-1H-1,3-benzodiazole-6-carboxylic acid] as the compound, how does the EC50 read?
The EC50 was under 50 nM.

Which EC50 does the source give for `O=C(O)c1cc(F)c2nc(CN3CC=C(c4ccc(F)c(COc5ccc(Cl)cc5F)n4)C3)n(C[C@@H]3CCO3)c2c1` [Compound 413, 2-[(3-{6-[(4-chloro-2-fluorophenoxy)methyl]-5-fluoropyridin-2-yl}-2,5-dihydro-1H-pyrrol-1-yl)methyl]-4-fluoro-1-{[(2S)-oxetan-2-yl]methyl}-1H-1,3-benzodiazole-6-carboxylic acid] here?
Its EC50 is under 50 nM.

`CCn1cncc1Cn1c(CN2CC=C(c3cccc(COc4ccc(Cl)cc4Cl)n3)C2)nc2ccc(C(=O)O)cc21` [Compound 385, 2-[(3-{6-[(2,4-dichlorophenoxy)methyl]pyridin-2-yl}-2,5-dihydro-1H-pyrrol-1-yl)methyl]-1-[(1-ethyl-1H-imidazol-5-yl)methyl]-1H-1,3-benzodiazole-6-carboxylic acid] was tested. Which EC50 did it give?
The EC50 was under 50 nM.

With `Cc1cc(Oc2ccnc(COc3ccc(C#N)cc3F)n2)ccc1Cc1nc2ccc(C(=O)O)cc2n1C[C@@H]1CCO1` [Compound 541, 2-{[4-({2-[(4-cyano-2-fluorophenoxy)methyl]pyrimidin-4-yl}oxy)-2-methylphenyl]methyl}-1-{[(2S)-oxetan-2-yl]methyl}-1H-1,3-benzodiazole-6-carboxylic acid] as the compound, how does the EC50 read?
The EC50 was under 50 nM.

For `CC1(c2ccc(Cl)cn2)Oc2cccc(CC3CN(Cc4nc5ccc(C(=O)O)cc5n4C[C@@H]4CCO4)C3)c2O1` (stereo partly drawn) [Compound 172, 2-[(3-{[2-(5-chloropyridin-2-yl)-2-methyl-2H-1,3-benzodioxol-4-yl]methyl}azetidin-1-yl)methyl]-1-{[(2S)-oxetan-2-yl]methyl}-1H-1,3-benzodiazole-6-carboxylic acid], which EC50 is on record?
The EC50 was over 500 nM.
